One data set deals with T1, Bcl-xL (Homo sapiens, UniProt Q07817).
T1 construct: fused on or other part: His tag
Briefly: Competitive fluorescence polarization assay, displacement of Flu-BakBH3 peptide from Bcl-xL. The data set is classed as binding. On the procedure: (§1) Competitive Fluorescence Polarization Assay. The binding affinity of the test agent to Bcl-2 and Bcl-xL was analyzed by a competitive fluorescence polarization assay, in which the ability of the agent to displace the binding of a Bak BH3-domain peptide to either Bcl-2 or Bcl-xL was determined. Flu-BakBH3, a Bak-BH3 peptide labeled at the N-terminus with fluorescein, was purchased from Genemed Synthesis (San Francisco, Calif.). C-Terminal-truncated, His-tagged Bcl-xL was purchased from EMD Biosciences (San Diego, Calif.), and soluble GST-fused Bcl-2 was obtained from Santa Cruz (Santa Cruz, Calif.). The KD determination was carried out in a dual-pathlength quartz cell with readings taken at […] at room temperature using a luminescence spectrometer according to an established procedure (17). Determination of IC50 values. Data from cell viability and FP assays were analyzed by using the CalcuSyn software (Biosoft, Ferguson, Mo.) to determine IC50 values, in which the calculation was based on the medium effect equation (18), i.e., Log(fa/fu)=m log(D)−m log(Dm) (equation 1), where fa and fu denote fraction affected and unaffected, respectively; m represents the Hill-type coefficient signifying the sigmoidicity of the dose-effect curve; D and Dm are the dose used and IC50, respectively.
Background: Fluorescence polarisation rises when a labelled molecule tumbles more slowly, as on binding a larger partner.

The subject of a further data set is LNCaP cells. Briefly: Cell viability analysis (MTT) in LNCaP cells. As to conditions: Homo sapiens. The data set is classed as cell-based. On the procedure:
(§2) Cell viability analysis. The effect of individual test agents on cell viability was assessed by using the MTT {[3-(4,5-dimethylthiazol-2-yl)-2,5-diphenyl-2H-tetrazolium bromide]} assay in six to twelve replicates. Cells were seeded and incubated in 96-well, flat-bottomed plates in serum-free media for 24 h, and were exposed to various concentrations of test agents dissolved in DMSO (final concentration, 0.1%) in serum-free RPMI 1640 medium for different time intervals. Controls received DMSO vehicle at a concentration equal to that in drug-treated cells. The medium was removed, replaced by 200 μl of 0.5 mg/ml of MTT in 10% FBS-containing RPMI-1640 medium, and cells were incubated in the CO2 incubator at 37° C. for 2 h. Supernatants were removed from the wells, and the reduced MTT dye was solubilized in 200 μl/well DMSO. Absorbance at 570 nm was determined on a plate reader.
(§3) Determination of IC50 values. Data from cell viability and FP assays were analyzed by using the CalcuSyn software (Biosoft, Ferguson, Mo.) to determine IC50 values, in which the calculation was based on the medium effect equation (18), i.e., Log(fa/fu)=m log(D)−m log(Dm) (equation 1), where fa and fu denote fraction affected and unaffected, respectively; m represents the Hill-type coefficient signifying the sigmoidicity of the dose-effect curve; D and Dm are the dose used and IC50, respectively.

In another data set the target is Bcl-2 (Homo sapiens, UniProt P10415). Briefly: Competitive fluorescence polarization assay, displacement of Flu-BakBH3 peptide from Bcl-2. The data set is classed as binding. Here is the method: as §1
Bcl-2, sequence (P10415 whole entry): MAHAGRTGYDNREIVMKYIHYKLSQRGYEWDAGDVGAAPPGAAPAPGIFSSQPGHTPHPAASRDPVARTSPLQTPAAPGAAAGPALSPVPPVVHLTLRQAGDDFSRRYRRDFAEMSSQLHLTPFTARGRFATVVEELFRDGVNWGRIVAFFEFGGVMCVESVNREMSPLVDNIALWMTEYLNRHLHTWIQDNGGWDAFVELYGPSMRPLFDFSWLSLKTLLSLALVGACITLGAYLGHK
Another data set relates to PC-3 cells. Briefly: Cell viability analysis (MTT) in PC-3 cells. Format: cell-based. As to conditions: read-out: IC50 (μM) PC3. On the procedure: Cell viability analysis. The effect of individual test agents on cell viability was assessed by using the MTT {[3-(4,5-dimethylthiazol-2-yl)-2,5-diphenyl-2H-tetrazolium bromide]} assay in six to twelve replicates. […] Controls received DMSO vehicle at a concentration equal to that in drug-treated cells. […] Supernatants were removed from the wells, and the reduced MTT dye was solubilized in 200 μl/well DMSO. Absorbance at 570 nm was determined on a plate reader.
as §3

Data set [1] is described as follows: WB (IC50 for WB, Tables 1-9). Format: cell-based. To be noted: marker, cell line and unit inferred. On the procedure:
Immunoblotting. Cells in T-75 flasks were collected by scraping, and suspended in 60 μl of phosphate-buffered saline (PBS). Two μl of the suspension was taken for protein analysis using the Bradford assay kit (Bio-Rad, Hercules, Calif.). To the remaining solution was added the same volume of 2×SDS-PAGE sample loading buffer (100 mM Tris-HCl, pH 6.8, 4% SDS, 5% β-mercaptoethanol 20% glycerol, and 0.1% bromophenol blue). The mixture was sonicated briefly, and boiled for 5 min. Equal amounts of proteins were loaded onto 10% SDS-PAGE gels.
After electrophoresis, protein bands were transferred to nitrocellulose membranes in a semidry transfer cell. The transblotted membrane was washed twice with Tris-buffered saline (TBS) containing 0.1% Tween 20 (TBST). After blocking with TBST containing 5% nonfat milk for 40 min, the membrane was incubated with the appropriate primary antibody in TBST-1% nonfat milk at 4° C. overnight. All primary antibodies were diluted 1:1000 in 1% nonfat milk-containing TBST. After treatment with the primary antibody, the membrane was washed three times with TBST for a total of 15 min, followed by incubation with goat anti-rabbit or anti-mouse IgG-horseradish peroxidase conjugates (diluted 1:5000) for 1 h at room temperature and three washes with TBST for a total of 1 h. The immunoblots were visualized by enhanced chemiluminescence.

A short description of data set [2]: MTT assay (IC50 for MTT, Tables 1-9). The data set is classed as cell-based. To be noted: cell line and unit inferred. On the procedure: as §2, §3
For orientation: Formazan colour is commonly taken as a measure of viable cells.

In a further data set the test system is PC-3 xenograft tumors. Briefly: Xenograft tumor growth (PC-3 tumors in nude mice).
Another data set has as its target T2, PPARγ (Homo sapiens, UniProt P37231).
T2 construct: endogenous in cells; host or cells: PC-3 prostate cancer cells
T2 sequence (P37231 1-505): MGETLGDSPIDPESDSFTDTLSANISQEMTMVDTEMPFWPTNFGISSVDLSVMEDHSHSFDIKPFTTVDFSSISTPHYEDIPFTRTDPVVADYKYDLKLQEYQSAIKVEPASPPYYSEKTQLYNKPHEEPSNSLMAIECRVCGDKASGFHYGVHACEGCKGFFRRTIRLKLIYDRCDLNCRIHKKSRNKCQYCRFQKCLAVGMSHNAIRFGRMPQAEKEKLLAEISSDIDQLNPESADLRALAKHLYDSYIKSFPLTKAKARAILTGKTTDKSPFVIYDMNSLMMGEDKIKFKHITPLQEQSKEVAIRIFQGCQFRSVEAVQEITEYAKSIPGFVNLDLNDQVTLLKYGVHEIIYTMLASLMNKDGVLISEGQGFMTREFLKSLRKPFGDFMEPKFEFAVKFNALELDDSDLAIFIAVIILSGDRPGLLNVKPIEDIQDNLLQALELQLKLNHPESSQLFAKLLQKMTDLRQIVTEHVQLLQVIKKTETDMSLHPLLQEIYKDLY
The experiment in a line: Analysis of PPARγ activation (transcription factor ELISA, PC-3 nuclear extracts). Format: cell-based. As to conditions: PC-3 cells, 10 μM, 48 h, versus DMSO vehicle. Here is the method:
Analysis of PPARγ activation. The analysis was carried out by using a PPARγ transcription factor ELISA kit (Active Motif, Carlsbad, Calif.), in which an oligonucleotide containing the peroxisome proliferator response element (PPRE) was immobilized onto a 96-well plate. PPARs contained in nuclear extracts bind specifically to this oligonucleotide and are detected through an antibody directed against PPARγ. […] Cells were collected, and nuclear extracts were prepared with a Nuclear Extract kit (Active Motif, Carlsbad, Calif.). Nuclear extracts of the same protein concentration from individual treatments were subject to the PPARγ transcription factor ELISA according to the manufacturer's instruction.
On the technique in general: An ELISA detects its analyte on a solid surface through an enzyme-linked reagent.

Setting [3] is: inhibition of Bak BH3 peptide binding to Bcl-xL, FP, read-out: IC50 Bcl-xl/Bak.
[4] abbreviates: inhibition of Bak BH3 peptide binding to Bcl-2, FP, read-out: IC50 Bcl-2/Bak.

We go through 13 compounds from US8309582B2, “Small molecule Bcl-Xl/Bcl-2 binding inhibitors” (The Ohio State University Research Foundation, priority 2004, dated 2012).

Read-outs that look alike come from different tables or passages of the source.

T1 sequence (Q07817 1-209 limits assumed): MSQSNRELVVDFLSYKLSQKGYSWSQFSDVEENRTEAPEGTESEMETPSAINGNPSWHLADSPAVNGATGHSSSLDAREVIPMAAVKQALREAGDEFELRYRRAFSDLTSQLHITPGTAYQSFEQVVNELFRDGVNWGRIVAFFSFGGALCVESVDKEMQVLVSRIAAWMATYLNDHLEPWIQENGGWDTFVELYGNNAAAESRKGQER
Protocol for PC-3 xenograft tumors: Xenograft tumor growth. Male NCr athymic nude mice (5-7 weeks of age) were obtained from the National Cancer Institute (Frederick, Md.). […] All experimental procedures utilizing these mice were performed in accordance with protocols approved by the Institutional Laboratory Animal Care and Use Committee of The Ohio State University.
Each mouse was inoculated subcutaneously in the right flank with 5×10^5 PC-3 cells suspended in 0.1 ml of serum-free medium containing 30% Matrigel (BD Biosciences, Bedford, Mass.) under isoflurane anesthesia. […] Controls received vehicle consisting of 0.5% methylcellulose and 0.1% polysorbate 80 in sterile water. The volume of drug or vehicle administered to each mouse was 0.02 ml/gram body weight. Tumors were measured weekly using calipers and their volumes calculated using a standard formula: width^2×length×0.52. Body weights were measured weekly.
Statistical analysis. […] Tumor growth data are expressed as mean tumor volumes±SE. For all data, differences were considered significant at P<0.05. Statistical procedures were performed using SPSS for Windows (SPSS, Inc., Chicago, Ill.).

For `Cc1c(C)c2c(c(C)c1O)CCC(C)(COc1ccc(CC3SC(=O)NC3=O)cc1)O2` (stereo not drawn) [TG, troglitazone, reference compound], the IC50 on Bcl-xL (setting [3]) was found to be 22 ± 1 µM; in the data set with LNCaP cells it was 22 ± 3 µM; on Bcl-2 (setting [4]), 22 ± 1 µM; in the data set on PC-3 cells (Homo sapiens, PC-3, PC-3 cells) it was 30 ± 2 µM.
`C=CCOc1c(C)c(C)c2c(c1C)CCC(C)(COc1ccc(/C=C3\SC(=O)NC3=O)cc1)O2` (stereo not drawn) [TG-6]: the IC50 came out at 3 µM in data set [1]; 6 ± 0.5 µM at Bcl-xL (setting [3]); 9 µM in data set [2]; 5.5 ± 0.4 µM at Bcl-2 (setting [4]); 11 ± 0.8 µM with PC-3 cells (Homo sapiens, PC-3, PC-3 cells).
The matching figures for `C=CCOc1c(C)c(C)c2c(c1C)CCC(C)(COc1ccc(/C=C3\SC(=O)N(CC(=O)OC)C3=O)cc1)O2` (stereo not drawn) [TG-9]: > 7.5 µM, > 50 µM, > 50 µM, > 50 µM and > 50 µM.
The matching figures for `Cc1c(C)c2c(c(C)c1OC/C=C/c1ccccc1)CCC(C)(COc1ccc(/C=C3\SC(=O)NC3=O)cc1)O2` (stereo not drawn) [TG-10]: > 7.5 µM, 13 ± 0.9 µM, 19 µM, 19 ± 0.8 µM and 19 ± 0.5 µM.
The matching figures for `Cc1c(C)c2c(c(C)c1OC(=O)CCC(=O)O)CCC(C)(COc1ccc(/C=C3\SC(=O)NC3=O)cc1)O2` (stereo not drawn) [TG-13]: > 7.5 µM, 28 ± 1.4 µM, > 50 µM, 30 ± 1.5 µM and 22 ± 0.6 µM.
Take `CC(C)=CCOc1c(C)c(C)c2c(c1C)CCC(C)(COc1ccc(/C=C3\SC(=O)NC3=O)cc1-c1ccc(C(F)(F)F)cc1)O2` (stereo not drawn) [TG-31]: the IC50 is > 7.5 µM in data set [1]; 4.9 ± 1.2 µM at Bcl-xL (setting [3]); > 50 µM in data set [2]; 4.7 ± 2 µM on Bcl-2 (setting [4]); 30 ± 1.1 µM in the data set on PC-3 cells (Homo sapiens, PC-3, PC-3 cells).
The matching figures for `CCc1ccc(-c2cc(/C=C3\SC(=O)NC3=O)ccc2OCC2(C)CCc3c(C)c(OCC=C(C)C)c(C)c(C)c3O2)cc1` (stereo not drawn) [TG-33]: > 7.5 µM, 18 ± 0.8 µM, > 50 µM, 21 ± 1.4 µM and 17 ± 0.9 µM.
On to `CCOC(=O)C(=Cc1ccc(OCC2(C)CCc3c(C)c(OCC=C(C)C)c(C)c(C)c3O2)c(Br)c1)C(=O)OCC` (stereo not drawn) [TG-41], for which the IC50 was > 7.5 µM in data set [1]; > 50 µM in data set [2]; > 50 µM with PC-3 cells (Homo sapiens, PC-3, PC-3 cells).
Consider `CC(C)=CCOc1c(C)c(C)c2c(c1C)CCC(C)(COc1ccc(C=C(C(=O)O)C(=O)O)cc1Br)O2` (stereo not drawn) [TG-42], for which the IC50 in data set [1] was > 7.5 µM; in data set [2] it was > 50 µM; in the data set on PC-3 cells (Homo sapiens, PC-3, PC-3 cells), 16 ± 0.3 µM.
The matching figures for `C=CCOc1c(C)c(C)c2c(c1C)CCC(C)(COc1cccc(/C=C3\SC(=O)NC3=O)c1)O2` (stereo not drawn) [TG-51]: 4.4 µM, 40 µM and 6.8 ± 0.2 µM.
In the case of `CC(C)=CCOc1c(C)c(C)c2c(c1C)CCC(C)(COc1ccc(/C=C3\SC(=O)NC3=O)cc1Br)O2` (stereo not drawn) [TG-88], the IC50 in data set [1] is > 7.5 µM; at Bcl-xL (setting [3]) it was 1.8 ± 0.2 µM; at Bcl-2 (setting [4]), 2.8 ± 0.3 µM; with PC-3 cells (Homo sapiens, PC-3, PC-3 cells), 2.5 ± 0.2 µM; with PC-3 cells (PC-3 cells) it was 4.2 ± 0.2 µM. In addition, the “extent of tumor growth inhibition” value in the data set with PC-3 xenograft tumors (100 mg/kg/day oral, after 63 days of treatment) worked out at 50%; in the data set with PC-3 xenograft tumors (200 mg/kg/day oral, after 63 days of treatment), 61%. For the same compound, the “tolerability, signs of toxicity” value with PC-3 xenograft tumors (100 and 200 mg/kg/day oral, nude mice) is “without observable signs of toxicity”. Also, the body weights entry with PC-3 xenograft tumors (100 and 200 mg/kg/day oral, throughout the course of study) is reported as “stable body weights”. Further, the “gross pathology at necropsy” value with PC-3 xenograft tumors (after 63 days of treatment) is listed as “No gross pathological abnormalities”. Besides, the “activity in PPARγ activation” value at PPARγ is reported as “lacked appreciable activity”.
Regarding `CC1(COc2ccc(/C=C3\SC(=O)NC3=O)cc2)CCCCC1` [Δ2-CG, 5-[4-(1-methyl-cyclohexylmethoxy)-benzylidene]-thiazolidine-2,4-dione], the IC50 in data set [1] was 13 µM; at Bcl-xL (setting [3]), 17 ± 2 µM; in data set [2], 70 µM; at Bcl-2 (setting [4]), 22 ± 3 µM; in the data set on PC-3 cells (Homo sapiens, PC-3, PC-3 cells) it was 15 ± 1.2 µM. On PPARγ, the “activity in PPARγ activation” value is reported as “completely devoid of the ligand binding activity”.
Turning to `CCc1ccc(CCOc2ccc(/C=C3\SC(=O)NC3=O)cc2)nc1` [Δ2-PG, 5-{4-[2-(5-ethyl-pyridin-2-yl)-ethoxy]-benzylidene}-thiazolidine-2,4-dione], the IC50 at Bcl-xL (setting [3]) was > 50 µM; at Bcl-xL (unit inferred, read-out: IC50 for inhibiting BH3-mediated protein interactions (Bcl-xL)), > 50 µM; on Bcl-2 (setting [4]), > 50 µM; on Bcl-2 (unit inferred, read-out: IC50 for inhibiting BH3-mediated protein interactions (Bcl-2)), > 50 µM; in the data set with PC-3 cells (Homo sapiens, PC-3, PC-3 cells) it was > 50 µM. Also, the “activity in PPARγ activation” value on PPARγ is given as “completely devoid of the ligand binding activity”.
